Source: the NIST ThermoML archive (doi:10.1021/acs.jced.6b00181)

Experiment: xn = mol fraction of the nth substance listed
Conditions: Liquid, Other PVT measurement

C=CC [propene] + CCCCCC
Conditions | mass density [kg/m3]
325.5 K, 6800 kPa, x1 = 0.8985 | 488.5
325.5 K, 10700 kPa, x1 = 0.8985 | 500.7
325.5 K, 13800 kPa, x1 = 0.8985 | 508.3
325.5 K, 16100 kPa, x1 = 0.8985 | 513.5
325.5 K, 20900 kPa, x1 = 0.8985 | 523.6
325.5 K, 27600 kPa, x1 = 0.8985 | 535.1
325.5 K, 34300 kPa, x1 = 0.8985 | 544.8
325.5 K, 41300 kPa, x1 = 0.8985 | 554.1
325.5 K, 48200 kPa, x1 = 0.8985 | 561.7
325.5 K, 51600 kPa, x1 = 0.8985 | 566.7
325.5 K, 55000 kPa, x1 = 0.8985 | 569.5
325.5 K, 58400 kPa, x1 = 0.8985 | 574.2
325.5 K, 61800 kPa, x1 = 0.8985 | 576.8
325.5 K, 64200 kPa, x1 = 0.8985 | 580.1
325.5 K, 67100 kPa, x1 = 0.8985 | 582.4
370.2 K, 5200 kPa, x1 = 0.9003 | 385.2
370.2 K, 5900 kPa, x1 = 0.9003 | 392.1
370.2 K, 7300 kPa, x1 = 0.9003 | 406
370.2 K, 10700 kPa, x1 = 0.9003 | 429.7
370.2 K, 14200 kPa, x1 = 0.9003 | 447.3
370.2 K, 17300 kPa, x1 = 0.9003 | 459.2
370.2 K, 20800 kPa, x1 = 0.9003 | 469.1
370.2 K, 24100 kPa, x1 = 0.9003 | 478.3
370.2 K, 31300 kPa, x1 = 0.9003 | 495.2
370.2 K, 38000 kPa, x1 = 0.9003 | 508.5
370.2 K, 44600 kPa, x1 = 0.9003 | 519.7
370.2 K, 46900 kPa, x1 = 0.9003 | 523.6
370.2 K, 48000 kPa, x1 = 0.9003 | 523.6
370.2 K, 50600 kPa, x1 = 0.9003 | 529.1
370.2 K, 51400 kPa, x1 = 0.9003 | 529.1
370.2 K, 57800 kPa, x1 = 0.9003 | 538.5
370.2 K, 61800 kPa, x1 = 0.9003 | 544.3
370.2 K, 67100 kPa, x1 = 0.9003 | 550.3
374.1 K, 2800 kPa, x1 = 0.606 | 465.7
374.1 K, 2900 kPa, x1 = 0.606 | 467
374.1 K, 3800 kPa, x1 = 0.606 | 471.2
374.1 K, 5500 kPa, x1 = 0.606 | 479
374.1 K, 7300 kPa, x1 = 0.606 | 486.2
374.1 K, 10600 kPa, x1 = 0.606 | 497.9
374.1 K, 17400 kPa, x1 = 0.606 | 515.3
374.1 K, 24000 kPa, x1 = 0.606 | 528.5
374.1 K, 31000 kPa, x1 = 0.606 | 540.7
374.1 K, 37900 kPa, x1 = 0.606 | 551.3
374.1 K, 38000 kPa, x1 = 0.606 | 551.7
374.1 K, 44700 kPa, x1 = 0.606 | 560.9
374.1 K, 51300 kPa, x1 = 0.606 | 569.2
374.1 K, 58100 kPa, x1 = 0.606 | 577.4
374.1 K, 63300 kPa, x1 = 0.606 | 583.4
374.1 K, 66900 kPa, x1 = 0.606 | 587.4
423.6 K, 16600 kPa, x1 = 0.9003 | 385.2
423.6 K, 17400 kPa, x1 = 0.9003 | 389.1
423.6 K, 20800 kPa, x1 = 0.9003 | 408.2
423.6 K, 24300 kPa, x1 = 0.9003 | 424
423.6 K, 31200 kPa, x1 = 0.9003 | 449.1
423.6 K, 37900 kPa, x1 = 0.9003 | 462.3
423.6 K, 44800 kPa, x1 = 0.9003 | 479.8
423.6 K, 51600 kPa, x1 = 0.9003 | 493
423.6 K, 58300 kPa, x1 = 0.9003 | 504.1
423.6 K, 59400 kPa, x1 = 0.9003 | 504.8
423.6 K, 63700 kPa, x1 = 0.9003 | 512.3
423.6 K, 67100 kPa, x1 = 0.9003 | 516.8
424 K, 10100 kPa, x1 = 0.606 | 427.5
424 K, 17500 kPa, x1 = 0.606 | 462.7
424 K, 24300 kPa, x1 = 0.606 | 484.2
424 K, 30800 kPa, x1 = 0.606 | 500.6
424 K, 37900 kPa, x1 = 0.606 | 514.3
424 K, 44700 kPa, x1 = 0.606 | 523.9
424 K, 51400 kPa, x1 = 0.606 | 534.9
424 K, 58300 kPa, x1 = 0.606 | 546
424 K, 63000 kPa, x1 = 0.606 | 551
424 K, 66900 kPa, x1 = 0.606 | 556
424.7 K, 4800 kPa, x1 = 0.4466 | 433.6
424.7 K, 7200 kPa, x1 = 0.4466 | 448.4
424.7 K, 10700 kPa, x1 = 0.4466 | 467.6
424.7 K, 17400 kPa, x1 = 0.4466 | 492.5
424.7 K, 21000 kPa, x1 = 0.4466 | 502.4
424.7 K, 24300 kPa, x1 = 0.4466 | 511.5
424.7 K, 31000 kPa, x1 = 0.4466 | 525
424.7 K, 37800 kPa, x1 = 0.4466 | 537.6
424.7 K, 44700 kPa, x1 = 0.4466 | 548.4
424.7 K, 51500 kPa, x1 = 0.4466 | 558.4
424.7 K, 58300 kPa, x1 = 0.4466 | 567.4
424.7 K, 63900 kPa, x1 = 0.4466 | 573.9
424.7 K, 67500 kPa, x1 = 0.4466 | 578.1
425 K, 1800 kPa, x1 = 0.1414 | 494.2
425 K, 3700 kPa, x1 = 0.1414 | 504.2
425 K, 5100 kPa, x1 = 0.1414 | 510.4
425 K, 7000 kPa, x1 = 0.1414 | 517.7
425 K, 10400 kPa, x1 = 0.1414 | 528.7
425 K, 17300 kPa, x1 = 0.1414 | 546.6
425 K, 17500 kPa, x1 = 0.1414 | 547.3
425 K, 20600 kPa, x1 = 0.1414 | 553.9
425 K, 24100 kPa, x1 = 0.1414 | 561.4
425 K, 27600 kPa, x1 = 0.1414 | 567.6
425 K, 30900 kPa, x1 = 0.1414 | 573.2
425 K, 34300 kPa, x1 = 0.1414 | 578.9
425 K, 37800 kPa, x1 = 0.1414 | 584.7
425 K, 41100 kPa, x1 = 0.1414 | 589.1
425 K, 44600 kPa, x1 = 0.1414 | 594.3
425 K, 51900 kPa, x1 = 0.1414 | 603.8
425 K, 54400 kPa, x1 = 0.1414 | 607.1
425 K, 58600 kPa, x1 = 0.1414 | 612.3
425 K, 61800 kPa, x1 = 0.1414 | 615.7
425 K, 63600 kPa, x1 = 0.1414 | 617.9
425 K, 66700 kPa, x1 = 0.1414 | 621
500.9 K, 12400 kPa, x1 = 0.1414 | 449.6
500.9 K, 13900 kPa, x1 = 0.1414 | 457.6
500.9 K, 20800 kPa, x1 = 0.1414 | 486.8
500.9 K, 24600 kPa, x1 = 0.1414 | 500.5
500.9 K, 27500 kPa, x1 = 0.1414 | 508.9
500.9 K, 31000 kPa, x1 = 0.1414 | 517.7
500.9 K, 37300 kPa, x1 = 0.1414 | 531.3
500.9 K, 37900 kPa, x1 = 0.1414 | 531.3
500.9 K, 41400 kPa, x1 = 0.1414 | 537.5
500.9 K, 44700 kPa, x1 = 0.1414 | 543.2
500.9 K, 44800 kPa, x1 = 0.1414 | 543.5
500.9 K, 47100 kPa, x1 = 0.1414 | 549
500.9 K, 48100 kPa, x1 = 0.1414 | 549
500.9 K, 51500 kPa, x1 = 0.1414 | 554.6
500.9 K, 54900 kPa, x1 = 0.1414 | 559.9
500.9 K, 58400 kPa, x1 = 0.1414 | 565.4
500.9 K, 61800 kPa, x1 = 0.1414 | 569.8
500.9 K, 64600 kPa, x1 = 0.1414 | 574
500.9 K, 67400 kPa, x1 = 0.1414 | 577.4
501 K, 7900 kPa, x1 = 0.4466 | 293.3
501 K, 9200 kPa, x1 = 0.606 | 230.6
501 K, 9700 kPa, x1 = 0.4466 | 331
501 K, 10100 kPa, x1 = 0.4466 | 330.6
501 K, 10700 kPa, x1 = 0.606 | 272.7
501 K, 12400 kPa, x1 = 0.606 | 306.1
501 K, 12600 kPa, x1 = 0.4466 | 363.8
501 K, 17200 kPa, x1 = 0.4466 | 401.7
501 K, 17300 kPa, x1 = 0.606 | 362
501 K, 20700 kPa, x1 = 0.606 | 386.4
501 K, 21900 kPa, x1 = 0.4466 | 428.7
501 K, 22000 kPa, x1 = 0.4466 | 433.3
501 K, 24000 kPa, x1 = 0.4466 | 436.5
501 K, 24400 kPa, x1 = 0.4466 | 440.8
501 K, 25200 kPa, x1 = 0.606 | 411.3
501 K, 29000 kPa, x1 = 0.606 | 429
501 K, 31000 kPa, x1 = 0.606 | 435.7
501 K, 31200 kPa, x1 = 0.4466 | 463.6
501 K, 34600 kPa, x1 = 0.4466 | 473.3
501 K, 37900 kPa, x1 = 0.4466 | 482.2
501 K, 37900 kPa, x1 = 0.606 | 455.7
501 K, 44800 kPa, x1 = 0.606 | 473.6
501 K, 45000 kPa, x1 = 0.4466 | 497.7
501 K, 51400 kPa, x1 = 0.606 | 485.9
501 K, 51600 kPa, x1 = 0.4466 | 509.9
501 K, 57900 kPa, x1 = 0.4466 | 519.9
501 K, 58400 kPa, x1 = 0.606 | 500
501 K, 63000 kPa, x1 = 0.606 | 506.6
501 K, 63200 kPa, x1 = 0.4466 | 527.6
501 K, 67000 kPa, x1 = 0.606 | 512.8
501 K, 67200 kPa, x1 = 0.4466 | 533.2
584.6 K, 29000 kPa, x1 = 0.1414 | 449.8
584.6 K, 31100 kPa, x1 = 0.1414 | 456.9
584.6 K, 34700 kPa, x1 = 0.1414 | 468.2
584.6 K, 37900 kPa, x1 = 0.1414 | 478
584.6 K, 41400 kPa, x1 = 0.1414 | 487.3
584.6 K, 44800 kPa, x1 = 0.1414 | 495.6
584.6 K, 45100 kPa, x1 = 0.1414 | 496.5
584.6 K, 48100 kPa, x1 = 0.1414 | 503.4
584.6 K, 51700 kPa, x1 = 0.1414 | 510.7
584.6 K, 55100 kPa, x1 = 0.1414 | 517.4
584.6 K, 58400 kPa, x1 = 0.1414 | 523.9
584.6 K, 61800 kPa, x1 = 0.1414 | 529
584.6 K, 64200 kPa, x1 = 0.1414 | 532.9
584.6 K, 67400 kPa, x1 = 0.1414 | 537.5
